Data: PMC6114901, “An automated screening method for detecting compounds with goitrogenic activity using transgenic zebrafish embryos” (PLoS ONE, 2018)

Key:
in vivo = conditions: zebrafish, in vivo
zebrafish embryos = assay: in vivo; conditions: for LC10: S2 Fig, unit not given, in µM; for Slope: mortality concentration-response curve
[1] = ref chemspider (http://www.chemspider.com); cited from earlier work
[2] = 72 hpf, 77.18 µmol/L, replicate 2, 11 embryos
[3] = 72 hpf, 115.76 µmol/L, replicate 2, 9 embryos
[4] = 72 hpf, 173.64 µmol/L, replicate 2, 8 embryos
[5] = 72 hpf, 260.47 µmol/L, replicate 2, 10 embryos
[6] = 72 hpf, 390.70 µmol/L, replicate 2, 10 embryos
[7] = 120 hpf, 25 µmol/L, replicate 1, 25 embryos
[8] = 120 hpf, 50 µmol/L, replicate 1, 25 embryos
[9] = 120 hpf, 77.18 µmol/L, replicate 2, 11 embryos
[10] = 120 hpf, 100 µmol/L, replicate 1, 25 embryos
[11] = 120 hpf, 115.76 µmol/L, replicate 2, 9 embryos
[12] = 120 hpf, 173.64 µmol/L, replicate 2, 9 embryos
[13] = 120 hpf, 200 µmol/L, replicate 1, 25 embryos
[14] = 120 hpf, 260.47 µmol/L, replicate 2, 10 embryos
[15] = 120 hpf, 390.70 µmol/L, replicate 2, 10 embryos
[16] = 120 hpf, 400 µmol/L, replicate 1, 25 embryos
[17] = sheet DCA 96 hpf (head prints 72 hpf), 77.18 µmol/L, replicate 2, 10 embryos
[18] = sheet DCA 96 hpf (head prints 72 hpf), 115.76 µmol/L, replicate 2, 9 embryos
[19] = sheet DCA 96 hpf (head prints 72 hpf), 173.64 µmol/L, replicate 2, 8 embryos
[20] = sheet DCA 96 hpf (head prints 72 hpf), 260.47 µmol/L, replicate 2, 10 embryos
[21] = sheet DCA 96 hpf (head prints 72 hpf), 390.70 µmol/L, replicate 2, 10 embryos

Nc1ccc(Cl)c(Cl)c1 [3,4-DCA, 3,4-dichloroaniline]
LC50 (in vivo; LC50 (48–120 hpf), mortality, embryos exposed 48–120 hpf): 29.4 µM
LC50 (in vivo; LC50, mortality after 48 h of exposure, S2 Fig, unit inferred): 319 µM
LC50 (in vivo; LC50, mortality after 72 h of exposure, S2 Fig, unit inferred): 59.4 µM
No Surviving (zebrafish embryos; [2]): 11
No hatched (zebrafish embryos; [2]): 9
Sublethal effects Total Sublethal (zebrafish embryos; [2]): 9
Sublethal effects tip (zebrafish embryos; [2]): 9
No Surviving (zebrafish embryos; [3]): 9
No hatched (zebrafish embryos; [3]): 7
Sublethal effects Total Sublethal (zebrafish embryos; [3]): 7
Sublethal effects mch (zebrafish embryos; [3]): 4
Sublethal effects tip (zebrafish embryos; [3]): 7
No Surviving (zebrafish embryos; [4]): 8
No hatched (zebrafish embryos; [4]): 7
Sublethal effects Total Sublethal (zebrafish embryos; [4]): 7
Sublethal effects mch (zebrafish embryos; [4]): 4
Sublethal effects tip (zebrafish embryos; [4]): 7
No Surviving (zebrafish embryos; [5]): 10
No hatched (zebrafish embryos; [5]): 4
Sublethal effects EdY / EdP (zebrafish embryos; [5]): 1
Sublethal effects Total Sublethal (zebrafish embryos; [5]): 4
Sublethal effects mch (zebrafish embryos; [5]): 2
Sublethal effects tip (zebrafish embryos; [5]): 4
No Surviving (zebrafish embryos; [6]): 10
No hatched (zebrafish embryos; [6]): 3
Sublethal effects EdY / EdP (zebrafish embryos; [6]): 10
Sublethal effects Total Sublethal (zebrafish embryos; [6]): 10
Sublethal effects mch (zebrafish embryos; [6]): 3
Sublethal effects tip (zebrafish embryos; [6]): 3
Lethal effects k/f (zebrafish embryos; [7]): 3
No Surviving (zebrafish embryos; [7]): 22
Lethal effects k/f (zebrafish embryos; [8]): 21
No Surviving (zebrafish embryos; [8]): 4
No Surviving (zebrafish embryos; [9]): 11
No hatched (zebrafish embryos; [9]): 8
Sublethal effects EdY / EdP (zebrafish embryos; [9]): 8
Sublethal effects Total Sublethal (zebrafish embryos; [9]): 8
Sublethal effects mch (zebrafish embryos; [9]): 4
Sublethal effects nobc (zebrafish embryos; [9]): 8
Sublethal effects nomov (zebrafish embryos; [9]): 8
Sublethal effects tip (zebrafish embryos; [9]): 8
Lethal effects k/f (zebrafish embryos; [10]): 25
No Surviving (zebrafish embryos; [10]): 0
Lethal effects k/f (zebrafish embryos; [11]): 6
No Surviving (zebrafish embryos; [11]): 3
No hatched (zebrafish embryos; [11]): 8
Sublethal effects EdY / EdP (zebrafish embryos; [11]): 2
Sublethal effects mch (zebrafish embryos; [11]): 1
Sublethal effects nobc (zebrafish embryos; [11]): 2
Sublethal effects nomov (zebrafish embryos; [11]): 2
Sublethal effects tip (zebrafish embryos; [11]): 2
Lethal effects k/f (zebrafish embryos; [12]): 3
Lethal effects nohb (zebrafish embryos; [12]): 3
No Surviving (zebrafish embryos; [12]): 3
No hatched (zebrafish embryos; [12]): 9
Sublethal effects EdY / EdP (zebrafish embryos; [12]): 3
Sublethal effects Ydef (zebrafish embryos; [12]): 1
Sublethal effects mch (zebrafish embryos; [12]): 1
Sublethal effects nobc (zebrafish embryos; [12]): 3
Sublethal effects nomov (zebrafish embryos; [12]): 3
Sublethal effects tip (zebrafish embryos; [12]): 3
Lethal effects k/f (zebrafish embryos; [13]): 25
No Surviving (zebrafish embryos; [13]): 0
Lethal effects k/f (zebrafish embryos; [14]): 5
Lethal effects nohb (zebrafish embryos; [14]): 5
No Surviving (zebrafish embryos; [14]): 0
No hatched (zebrafish embryos; [14]): 4
Lethal effects k/f (zebrafish embryos; [15]): 8
Lethal effects nohb (zebrafish embryos; [15]): 2
No Surviving (zebrafish embryos; [15]): 0
No hatched (zebrafish embryos; [15]): 4
Lethal effects k/f (zebrafish embryos; [16]): 25
No Surviving (zebrafish embryos; [16]): 0
LC10 (zebrafish embryos; mortality after 48 h of exposure): 306
LC10 (zebrafish embryos; mortality after 72 h of exposure): 14.1
Slope (zebrafish embryos; 48 h of exposure): 55.5
Slope (zebrafish embryos; 72 h of exposure): 1.53
No Surviving (zebrafish embryos; [17]): 10
No hatched (zebrafish embryos; [17]): 8
Sublethal effects EdY / EdP (zebrafish embryos; [17]): 6
Sublethal effects Total Sublethal (zebrafish embryos; [17]): 8
Sublethal effects mch (zebrafish embryos; [17]): 2
Sublethal effects tip (zebrafish embryos; [17]): 8
No Surviving (zebrafish embryos; [18]): 9
No hatched (zebrafish embryos; [18]): 8
Sublethal effects Total Sublethal (zebrafish embryos; [18]): 8
Sublethal effects mch (zebrafish embryos; [18]): 5
Sublethal effects nomov (zebrafish embryos; [18]): 5
Sublethal effects tip (zebrafish embryos; [18]): 8
No Surviving (zebrafish embryos; [19]): 8
Sublethal effects Total Sublethal (zebrafish embryos; [19]): 9
Sublethal effects Ydef (zebrafish embryos; [19]): 1
Sublethal effects mch (zebrafish embryos; [19]): 6
Sublethal effects nobc (zebrafish embryos; [19]): 9
Sublethal effects nomov (zebrafish embryos; [19]): 9
Sublethal effects tip (zebrafish embryos; [19]): 9
No Surviving (zebrafish embryos; [20]): 10
No hatched (zebrafish embryos; [20]): 4
Sublethal effects EdY / EdP (zebrafish embryos; [20]): 4
Sublethal effects Total Sublethal (zebrafish embryos; [20]): 4
Sublethal effects mch (zebrafish embryos; [20]): 2
Sublethal effects nobc (zebrafish embryos; [20]): 4
Sublethal effects nomov (zebrafish embryos; [20]): 4
Sublethal effects tip (zebrafish embryos; [20]): 4
Lethal effects k/f (zebrafish embryos; [21]): 1
Lethal effects nohb (zebrafish embryos; [21]): 9
No Surviving (zebrafish embryos; [21]): 0
No hatched (zebrafish embryos; [21]): 4
Log D (pH 7.4) [1]: 2.6
